Experimental data as given in patent publication US8569344B2, “N-piperidinyl acetamide derivatives as calcium channel blockers” (Zalicus Pharmaceuticals Ltd., priority 2008, dated 2013).

Assays:
[1] = target: T1, human α1G T-type channels (Homo sapiens, UniProt O43497); assay: T-type calcium channel block, whole cell patch clamp in HEK cells (α1G); type: cell-based; conditions: HEK cells, patch clamp, mainly non-inactivated protocol; values above 10 μM shown as 10 μM, below 0.30 μM shown as 0.30 μM; read-out: T-type Calcium Channel Block α1G IC50
T1 construct: expressed in transfected cells; host or cells: HEK 293

[2] = target: T2, human α1H T-type channels (Homo sapiens, UniProt O95180); assay: T-type calcium channel block, whole cell patch clamp in HEK cells (α1H); type: cell-based; conditions: HEK cells, patch clamp, mainly non-inactivated protocol; values above 10 μM shown as 10 μM; read-out: T-type Calcium Channel Block α1H IC50
T2 construct: expressed in transfected cells; host or cells: HEK 293
T2 sequence (O95180 whole entry): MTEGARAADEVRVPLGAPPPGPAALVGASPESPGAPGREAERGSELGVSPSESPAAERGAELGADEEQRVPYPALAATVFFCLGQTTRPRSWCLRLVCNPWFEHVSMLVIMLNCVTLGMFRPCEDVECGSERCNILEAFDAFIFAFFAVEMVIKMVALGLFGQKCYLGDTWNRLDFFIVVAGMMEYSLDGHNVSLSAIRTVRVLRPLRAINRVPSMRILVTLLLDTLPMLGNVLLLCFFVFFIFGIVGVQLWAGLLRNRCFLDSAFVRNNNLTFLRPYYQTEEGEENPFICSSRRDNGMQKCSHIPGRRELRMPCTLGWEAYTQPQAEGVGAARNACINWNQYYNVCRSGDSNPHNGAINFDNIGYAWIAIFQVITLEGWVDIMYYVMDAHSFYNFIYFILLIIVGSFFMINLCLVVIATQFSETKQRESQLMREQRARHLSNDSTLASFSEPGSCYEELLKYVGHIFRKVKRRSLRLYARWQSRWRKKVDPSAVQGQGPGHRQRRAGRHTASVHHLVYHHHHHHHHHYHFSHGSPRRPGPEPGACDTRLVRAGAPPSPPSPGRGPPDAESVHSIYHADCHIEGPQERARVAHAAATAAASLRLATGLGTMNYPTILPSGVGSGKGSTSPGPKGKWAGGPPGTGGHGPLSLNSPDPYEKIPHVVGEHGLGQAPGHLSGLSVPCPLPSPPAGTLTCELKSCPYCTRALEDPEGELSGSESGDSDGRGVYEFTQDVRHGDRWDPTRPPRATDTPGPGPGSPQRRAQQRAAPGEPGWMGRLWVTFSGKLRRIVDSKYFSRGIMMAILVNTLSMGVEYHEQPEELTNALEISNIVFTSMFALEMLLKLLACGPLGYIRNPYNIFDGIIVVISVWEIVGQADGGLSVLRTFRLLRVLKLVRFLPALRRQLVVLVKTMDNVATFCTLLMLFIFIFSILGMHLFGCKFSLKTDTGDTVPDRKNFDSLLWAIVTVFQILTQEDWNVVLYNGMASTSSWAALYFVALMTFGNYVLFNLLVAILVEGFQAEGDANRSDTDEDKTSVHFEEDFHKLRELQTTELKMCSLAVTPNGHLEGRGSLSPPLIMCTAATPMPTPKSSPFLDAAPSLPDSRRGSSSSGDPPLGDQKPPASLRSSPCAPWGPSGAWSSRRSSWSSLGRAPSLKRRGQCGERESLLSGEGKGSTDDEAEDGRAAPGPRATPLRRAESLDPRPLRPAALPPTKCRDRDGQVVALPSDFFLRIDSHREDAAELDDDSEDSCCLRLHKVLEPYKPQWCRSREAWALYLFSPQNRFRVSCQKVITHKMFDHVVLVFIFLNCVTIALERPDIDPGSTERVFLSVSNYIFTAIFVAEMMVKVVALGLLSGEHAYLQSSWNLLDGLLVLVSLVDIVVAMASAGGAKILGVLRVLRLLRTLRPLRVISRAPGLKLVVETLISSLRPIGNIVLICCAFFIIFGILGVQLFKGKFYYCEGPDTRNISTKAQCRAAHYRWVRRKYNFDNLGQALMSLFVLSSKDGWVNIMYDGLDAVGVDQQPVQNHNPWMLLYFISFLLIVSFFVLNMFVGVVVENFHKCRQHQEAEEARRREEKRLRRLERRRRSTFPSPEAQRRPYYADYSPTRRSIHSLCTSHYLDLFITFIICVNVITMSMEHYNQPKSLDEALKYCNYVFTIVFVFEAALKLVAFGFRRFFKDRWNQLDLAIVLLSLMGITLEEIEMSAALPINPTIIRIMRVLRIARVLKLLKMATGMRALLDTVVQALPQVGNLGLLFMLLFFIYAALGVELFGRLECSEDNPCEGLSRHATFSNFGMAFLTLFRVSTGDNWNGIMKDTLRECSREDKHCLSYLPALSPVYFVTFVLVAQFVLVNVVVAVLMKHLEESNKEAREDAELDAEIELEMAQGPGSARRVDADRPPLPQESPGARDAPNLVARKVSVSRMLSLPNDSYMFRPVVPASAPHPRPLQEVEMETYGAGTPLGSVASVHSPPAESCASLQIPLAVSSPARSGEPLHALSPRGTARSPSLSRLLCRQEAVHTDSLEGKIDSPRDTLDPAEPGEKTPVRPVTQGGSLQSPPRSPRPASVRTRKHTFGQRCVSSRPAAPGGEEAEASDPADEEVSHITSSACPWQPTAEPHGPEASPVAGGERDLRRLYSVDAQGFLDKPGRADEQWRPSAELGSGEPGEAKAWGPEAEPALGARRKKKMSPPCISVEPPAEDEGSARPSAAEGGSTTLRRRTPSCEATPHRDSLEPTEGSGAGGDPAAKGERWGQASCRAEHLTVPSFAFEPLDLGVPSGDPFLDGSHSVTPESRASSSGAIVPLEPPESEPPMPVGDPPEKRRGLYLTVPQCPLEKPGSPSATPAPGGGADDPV

T1 sequence (O43497 whole entry): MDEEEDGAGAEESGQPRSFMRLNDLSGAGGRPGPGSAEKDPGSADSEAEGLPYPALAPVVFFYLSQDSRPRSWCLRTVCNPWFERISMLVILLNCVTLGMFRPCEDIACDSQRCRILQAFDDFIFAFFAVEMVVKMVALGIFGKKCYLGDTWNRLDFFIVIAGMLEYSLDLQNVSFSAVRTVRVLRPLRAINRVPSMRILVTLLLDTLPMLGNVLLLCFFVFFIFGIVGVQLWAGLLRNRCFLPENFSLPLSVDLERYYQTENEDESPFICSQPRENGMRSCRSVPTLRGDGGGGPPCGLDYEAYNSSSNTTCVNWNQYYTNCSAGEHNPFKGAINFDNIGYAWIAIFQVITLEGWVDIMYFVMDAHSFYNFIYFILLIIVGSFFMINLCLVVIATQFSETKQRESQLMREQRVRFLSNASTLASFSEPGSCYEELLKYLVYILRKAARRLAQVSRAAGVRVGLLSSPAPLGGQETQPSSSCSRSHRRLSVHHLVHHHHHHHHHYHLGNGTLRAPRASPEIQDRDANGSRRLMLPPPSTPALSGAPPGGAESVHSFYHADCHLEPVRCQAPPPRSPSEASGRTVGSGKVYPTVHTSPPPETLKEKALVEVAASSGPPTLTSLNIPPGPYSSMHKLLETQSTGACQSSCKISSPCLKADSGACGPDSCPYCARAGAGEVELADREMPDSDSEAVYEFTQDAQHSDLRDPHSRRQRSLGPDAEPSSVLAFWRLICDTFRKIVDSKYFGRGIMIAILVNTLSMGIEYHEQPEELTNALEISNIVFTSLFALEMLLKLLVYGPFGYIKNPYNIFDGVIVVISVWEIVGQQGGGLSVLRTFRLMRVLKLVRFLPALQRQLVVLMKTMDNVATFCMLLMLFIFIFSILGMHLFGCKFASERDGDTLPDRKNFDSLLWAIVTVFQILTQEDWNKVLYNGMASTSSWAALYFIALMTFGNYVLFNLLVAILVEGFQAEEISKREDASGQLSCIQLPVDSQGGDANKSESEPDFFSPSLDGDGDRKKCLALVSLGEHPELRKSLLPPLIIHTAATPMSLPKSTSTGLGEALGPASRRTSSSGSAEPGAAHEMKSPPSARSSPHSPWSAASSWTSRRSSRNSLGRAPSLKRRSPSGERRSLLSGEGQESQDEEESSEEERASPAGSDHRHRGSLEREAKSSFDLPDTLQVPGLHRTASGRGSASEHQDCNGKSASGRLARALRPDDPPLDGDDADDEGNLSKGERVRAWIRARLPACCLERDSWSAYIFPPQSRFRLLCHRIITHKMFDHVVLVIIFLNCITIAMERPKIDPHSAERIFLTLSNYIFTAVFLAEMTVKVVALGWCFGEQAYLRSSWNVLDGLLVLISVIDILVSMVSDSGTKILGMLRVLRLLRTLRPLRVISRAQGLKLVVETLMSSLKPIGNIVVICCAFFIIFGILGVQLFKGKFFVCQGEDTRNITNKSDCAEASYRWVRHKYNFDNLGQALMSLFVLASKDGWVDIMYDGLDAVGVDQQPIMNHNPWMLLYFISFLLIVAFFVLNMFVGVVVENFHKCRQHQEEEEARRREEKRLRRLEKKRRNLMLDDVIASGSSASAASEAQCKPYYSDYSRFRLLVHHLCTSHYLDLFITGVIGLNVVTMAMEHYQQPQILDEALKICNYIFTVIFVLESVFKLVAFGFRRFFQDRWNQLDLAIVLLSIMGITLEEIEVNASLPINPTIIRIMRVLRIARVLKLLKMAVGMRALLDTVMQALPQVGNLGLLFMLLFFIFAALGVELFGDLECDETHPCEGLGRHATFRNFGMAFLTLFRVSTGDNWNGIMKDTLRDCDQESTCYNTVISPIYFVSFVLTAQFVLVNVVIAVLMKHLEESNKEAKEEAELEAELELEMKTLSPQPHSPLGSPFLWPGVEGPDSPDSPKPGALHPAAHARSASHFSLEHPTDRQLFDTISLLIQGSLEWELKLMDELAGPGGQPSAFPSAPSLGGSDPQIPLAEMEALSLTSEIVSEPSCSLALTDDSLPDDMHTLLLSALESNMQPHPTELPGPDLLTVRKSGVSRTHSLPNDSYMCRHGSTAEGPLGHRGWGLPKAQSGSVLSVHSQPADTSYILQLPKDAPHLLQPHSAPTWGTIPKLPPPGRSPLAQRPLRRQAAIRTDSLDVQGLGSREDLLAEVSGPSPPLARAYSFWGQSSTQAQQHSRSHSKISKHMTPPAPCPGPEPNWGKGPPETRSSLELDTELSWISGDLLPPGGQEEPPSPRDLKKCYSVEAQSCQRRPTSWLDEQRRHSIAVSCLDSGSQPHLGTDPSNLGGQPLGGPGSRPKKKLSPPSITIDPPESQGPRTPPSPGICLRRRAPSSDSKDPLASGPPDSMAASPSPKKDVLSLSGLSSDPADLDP

Row | Structure (SMILES) | IC50 [1] | IC50 [2]
1 | O=C(NCC1CCN(C(=O)CN2CCCC(O)C2)CC1)c1cc(C(F)(F)F)cc(C(F)(F)F)c1 (centres unmarked) [Compound 240, N-((1-(2-(3-hydroxypiperidin-1-yl)acetyl)piperidin-4-yl)methyl)-3,5-bis(trifluoromethyl)benzamide] | > 10000 nM | > 10000 nM
2 | CC(C)(C(=O)NCCN1CCC(CNC(=O)c2cc(C(F)(F)F)cc(C(F)(F)F)c2)CC1)C(F)(F)F [Compound 338, N-((1-(2-(3,3,3-trifluoro-2,2-dimethylpropanamido)ethyl)piperidin-4-yl)methyl)-3,5-bis(trifluoromethyl) benzamide] | < 300 nM | 160 nM
3 | O=C(NCC1CCN(CC(=O)N2CC[C@H](C(F)(F)F)C2)CC1)c1cc(F)cc(C(F)(F)F)c1 [Compound 355, (S)-3-fluoro-N-((1-(2-oxo-2-(3-(trifluoromethyl)pyrrolidin-1-yl)ethyl)piperidin-4-yl)methyl)-5-(trifluoromethyl)benzamide] | < 300 nM | 160 nM
4 | COc1cc(Cl)cc(C(=O)NCC2CCN(CCNS(=O)(=O)C3CC3)CC2)c1 [Compound 322, 3-chloro-N-((1-(2-(cyclopropanesulfonamido)ethyl)piperidin-4-yl)methyl)-5-methoxybenzamide] | 4050 nM | 2140 nM
5 | CS(=O)(=O)NC1(CN2CCC(CNC(=O)c3cc(C(F)(F)F)cc(C(F)(F)F)c3)CC2)CC1 [Compound 357, N-((1-((1-(methylsulfonamido)cyclopropyl)methyl)piperidin-4-yl)methyl)-3,5-bis(trifluoromethyl)benzamide] | 2150 nM | 1270 nM
6 | O=C(NCC1CCN(C(=O)CNC2CC2)CC1)c1cc(C(F)(F)F)cc(C(F)(F)F)c1 [Compound 257, N-((1-(2-(cyclopropylamino)acetyl)piperidin-4-yl)methyl)-3,5-bis(trifluoromethyl)benzamide] | 3210 nM | 2420 nM
7 | CCNC(=O)NC1(CN2CCC(CNC(=O)c3cc(C(F)(F)F)cc(C(F)(F)F)c3)CC2)CCCC1 [Compound 11, N-((1-((1-(3-ethylureido)cyclopentyl)methyl)piperidin-4-yl)methyl)-3,5-bis(trifluoromethyl)benzamide] | 1890 nM | 3800 nM
8 | Cc1cc(C)cc(C(=O)NCC2CCN(CCNC(=O)CCC(F)(F)F)CC2)c1 [Compound 312, 3,5-dimethyl-N-((1-(2-(4,4,4-trifluorobutanamido)ethyl)piperidin-4-yl)methyl)benzamide] | 4260 nM | 750 nM
9 | CC(C)(C)C(=O)NCCN1CCC(CNC(=O)c2cc(C(F)(F)F)ccn2)CC1 [Compound 310, N-((1-(2-pivalamidoethyl)piperidin-4-yl)methyl)-4-(trifluoromethyl) picolinamide] | > 10000 nM | > 10000 nM
10 | O=C(NCC1CCN(CCNS(=O)(=O)C2CC2)CC1)c1cccc(OC(F)(F)F)c1 [Compound 234, N-((1-(2-(cyclopropanesulfonamido)ethyl)piperidin-4-yl)methyl)-3-(trifluoromethoxy)benzamide] | 1450 nM | 970 nM
11 | O=C(NCC1CCN(CCNC(=O)C2(C(F)(F)F)CCCC2)CC1)c1cc(F)cc(C(F)(F)F)c1 [Compound 341, 3-fluoro-5-(trifluoromethyl)-N-((1-(2-(1-(trifluoromethyl)cyclopentanecarbox-amido)ethyl)piperidin-4-yl)methyl) benzamide] | < 300 nM | 120 nM
12 | O=C(NCC1CCN(CCNC(=O)C2(C(F)(F)F)CC2)CC1)c1cc(C(F)(F)F)cc(C(F)(F)F)c1 [Compound 342, 3,5-bis(trifluoromethyl)-N-((1-(2-(1-(trifluoromethyl)cyclopropanecarbox-amido)ethyl)piperidin-4-yl)methyl) benzamide] | < 300 nM | 70 nM
13 | CCC1CCCN1CC(=O)N1CCC(CNC(=O)c2cc(F)cc(C(F)(F)F)c2)CC1 (centres unmarked) [Compound 280, N-((1-(2-(2-ethylpyrrolidin-1-yl)acetyl)piperidin-4-yl)methyl)-3-fluoro-5-(trifluoromethyl)benzamide] | 9700 nM | 5590 nM
14 | O=C(NCC1CCN(CC2(NS(=O)(=O)C3CC3)CCCC2)CC1)c1cc(C(F)(F)F)cc(C(F)(F)F)c1 [Compound 2, N-((1-((1-(cyclopropanesulfonamido)cyclopentyl)methyl)piperidin-4-yl)methyl)-3,5-bis(trifluoromethyl)benzamide] | < 300 nM | 540 nM
15 | CC(C)(C)C1CCN(CC(=O)N2CCC(CNC(=O)c3cc(F)cc(C(F)(F)F)c3)CC2)CC1 [Compound 285, N-((1-(2-(4-tert-butylpiperidin-1-yl)acetyl)piperidin-4-yl)methyl)-3-fluoro-5-(trifluoromethyl)benzamide] | 4940 nM | > 10000 nM

Continued, values first:

Row | IC50 [1] | IC50 [2] | Structure (SMILES)
16 | < 300 nM | 270 nM | COc1cc(OC)cc(C(=O)NCC2CCN(CC(=O)N3CCC[C@H]3C(F)(F)F)CC2)c1 [Compound 466, (S)-3,5-dimethoxy-N-((1-(2-oxo-2-(2-(trifluoromethyl)pyrrolidin-1-yl)ethyl)piperidin-4-yl)methyl)benzamide]
17 | < 300 nM | 20 nM | CC(C(=O)NC1(C)CCCCC1)N1CCC(CNC(=O)c2cc(F)cc(Cl)c2)CC1 (centres unmarked) [Compound 550, 3-chloro-5-fluoro-N-((1-(1-(1-methylcyclohexylamino)-1-oxopropan-2-yl)piperidin-4-yl)methyl)benzamide]
18 | < 300 nM | 30 nM | Cc1cc(F)cc(C(=O)NCC2CCN(CC(=O)NC(C)(C)C(F)(F)F)CC2)c1 [Compound 455, 3-fluoro-5-methyl-N-((1-(2-oxo-2-(1,1,1-trifluoro-2-methylpropan-2-ylamino)ethyl)piperidin-4-yl)methyl)benzamide]
19 | > 10000 nM | > 10000 nM | CC(C)NC(=O)CN1CCC(CNC(=O)c2cccc(Cl)c2)CC1 [Compound 442, 3-chloro-N-((1-(2-(isopropylamino)-2-oxoethyl)piperidin-4-yl)methyl)benzamide]
20 | < 300 nM | 40 nM | CC(C)(NC(=O)CN1CCC(CNC(=O)c2cccc(C(F)(F)F)c2)CC1)C(F)(F)F [Compound 458, N-((1-(2-oxo-2-(1,1,1-trifluoro-2-methylpropan-2-ylamino)ethyl)piperidin-4-yl)methyl)-3-(trifluoromethyl)benzamide]
21 | < 300 nM | 170 nM | COc1cc(F)cc(C(=O)NCC2CCN(CC(=O)N3CCC[C@H]3C(F)(F)F)CC2)c1 [Compound 465, (S)-3-fluoro-5-methoxy-N-((1-(2-oxo-2-(2-(trifluoromethyl)pyrrolidin-1-yl)ethyl)piperidin-4-yl)methyl)benzamide]
22 | < 300 nM | 190 nM | CN(CCN1CCC(CNC(=O)c2cc(F)cc(C(F)(F)F)c2)CC1)C(=O)C1(C(F)(F)F)CC1 [Compound 520, 3-fluoro-N-((1-(2-(N-methyl-1-(trifluoromethyl)cyclopropanecarbox-amido)ethyl)piperidin-4-yl)methyl)-5-(trifluoromethyl)benzamide]
23 | 9150 nM | 3080 nM | CCCNC(=O)CN1CCC(CNC(=O)c2cc(F)cc(OC)c2)CC1 [Compound 447, 3-fluoro-5-methoxy-N-((1-(2-oxo-2-(propylamino)ethyl)piperidin-4-yl)methyl)benzamide]
24 | < 300 nM | 240 nM | CC1CCC(C(=O)N(C)CCN2CCC(CNC(=O)c3cc(F)cc(C(F)(F)F)c3)CC2)CC1 (centres unmarked) [Compound 519, N-((1-(2-(N,4-dimethylcyclohexanecarboxamido)ethyl)piperidin-4-yl)methyl)-3-fluoro-5-(trifluoromethyl)benzamide]
25 | 520 nM | 530 nM | CCS(=O)(=O)NC1(CN2CCC(CNC(=O)c3cc(C(F)(F)F)cc(C(F)(F)F)c3)CC2)CC1 [Compound 358, N-((1-((1-(ethylsulfonamido)cyclopropyl)methyl)piperidin-4-yl)methyl)-3,5-bis(trifluoromethyl)benzamide]
26 | 1220 nM | 1350 nM | CC(C)(C)NC(=O)CN1CCC(CNC(=O)Cc2cc(C(F)(F)F)cc(C(F)(F)F)c2)CC1 [Compound 383, 2-(3,5-bis(trifluoromethyl)phenyl)-N-((1-(2-(tert-butylamino)-2-oxoethyl)piperidin-4-yl)methyl)acetamide]
27 | 1100 nM | 420 nM | CN(CCN1CCC(CNC(=O)c2cc(F)cc(C(F)(F)F)c2)CC1)C(=O)CCC(F)(F)F [Compound 517, 3-fluoro-N-((1-(2-(4,4,4-trifluoro-N-methylbutanamido)ethyl)piperidin-4-yl)methyl)-5-(trifluoromethyl)benzamide]
28 | > 10000 nM | > 10000 nM | NC1(C(=O)NCCN2CCC(CNC(=O)c3cc(F)cc(C(F)(F)F)c3)CC2)CCC1 [Compound 571, N-((1-(2-(1-aminocyclobutanecarboxamido)ethyl)piperidin-4-yl)methyl)-3-fluoro-5-(trifluoromethyl) benzazmide]
29 | < 300 nM | 270 nM | O=C(CN1CCC(CNC(=O)c2cc(F)cc(C(F)(F)F)c2)CC1)NC1(C2CCOCC2)CC1 [Compound 561, 3-fluoro-N-((1-(2-oxo-2-(1-(tetrahydro-2H-pyran-4-yl)cyclopropylamino)ethyl)piperidin-4-yl)methyl)-5-(trifluoromethyl) benzamide]
30 | 770 nM | 220 nM | Cc1cc(F)cc(C(=O)NCC2CCN(CCNC(=O)C3(C(F)(F)F)CC3)CC2)c1 [Compound 498, 3-fluoro-5-methyl-N-((1-(2-(1-(trifluoromethyl)cyclopropanecarbox-amido)ethyl)piperidin-4-yl)methyl) benzamide]
31 | < 300 nM | 110 nM | CC(C(=O)NC1CCCC1)N1CCC(CNC(=O)c2cc(F)cc(Cl)c2)CC1 (centres unmarked) [Compound 549, 3-chloro-N-((1-(1-(cyclopentylamino)-1-oxopropan-2-yl)piperidin-4-yl)methyl)-5-fluorobenzamide]
